Data published in PubChem BioAssay (NCI).
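Five concentrations, 48 hours, 96-well plates. At the GI50, growth is halved. At the TGI there is no net growth.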

Columns and labels:
Experiment in all cases: DTP human tumour cell line panel, 48 h
PC-3 prostate = system: PC-3 prostate
SR leukemia = system: SR leukemia
T-47D breast = system: T-47D breast
COLO 205 colon = system: COLO 205 colon
SN12C renal = system: SN12C renal
NCI/ADR-RES ovarian = system: NCI/ADR-RES ovarian
SK-MEL-2 melanoma = system: SK-MEL-2 melanoma
SK-MEL-5 melanoma = system: SK-MEL-5 melanoma
BT-549 breast = system: BT-549 breast

CC1=CCC([C@@](C)(O)CCCC(C)(C)N=C=S)CC1 (stereo partly drawn)
TGI (PC-3 prostate): 33 µM
TGI (SR leukemia): 41.7 µM
TGI (T-47D breast): 44.2 µM
TGI (COLO 205 colon): 30.2 µM
TGI (SN12C renal): 35.6 µM
TGI (NCI/ADR-RES ovarian): 38.9 µM
TGI (SK-MEL-2 melanoma): 33.3 µM
TGI (SK-MEL-5 melanoma): 29.2 µM
TGI (BT-549 breast): 33.5 µM

O=C1NC2c3c(I)sc(I)c3C(O)C2O1 (stereo not drawn)
TGI (PC-3 prostate): > 100 µM
TGI (SR leukemia): > 100 µM
TGI (T-47D breast): > 100 µM
TGI (COLO 205 colon): > 100 µM
TGI (SN12C renal): > 100 µM
TGI (NCI/ADR-RES ovarian): > 100 µM
TGI (SK-MEL-2 melanoma): > 100 µM

NC(=O)c1c(NC(=O)c2ccccc2)sc2c1CCC(=O)C2
GI50 (PC-3 prostate): 0.319 µM
TGI (PC-3 prostate): 17.6 µM
GI50 (SN12C renal): 0.612 µM
TGI (SN12C renal): 11.5 µM
GI50 (NCI/ADR-RES ovarian): 1.28 µM
TGI (NCI/ADR-RES ovarian): 10.4 µM
GI50 (SK-MEL-2 melanoma): 2.4 µM
TGI (SK-MEL-2 melanoma): 7.21 µM
GI50 (SK-MEL-5 melanoma): 1.64 µM
TGI (SK-MEL-5 melanoma): 3.04 µM

O=[N+]([O-])C(=C(Nc1ccccc1)Nc1ccccc1)C(Cl)=C(Cl)Cl
TGI (PC-3 prostate): 29.6 µM
TGI (T-47D breast): 50.9 µM
TGI (COLO 205 colon): 34.1 µM
TGI (SN12C renal): 35.5 µM
TGI (NCI/ADR-RES ovarian): 58.2 µM
TGI (SK-MEL-2 melanoma): 28.3 µM
TGI (SK-MEL-5 melanoma): 29.2 µM
TGI (BT-549 breast): 29.6 µM

O=C(O)[C@H]1CCCN1CP(=O)(O)CN1CCC[C@@H]1C(=O)O
TGI (PC-3 prostate): > 100 µM
TGI (T-47D breast): > 100 µM
TGI (COLO 205 colon): > 100 µM
TGI (SN12C renal): > 100 µM
TGI (NCI/ADR-RES ovarian): > 100 µM
TGI (SK-MEL-2 melanoma): > 100 µM
TGI (SK-MEL-5 melanoma): > 100 µM
TGI (BT-549 breast): > 100 µM

O=C1c2ccccc2C(=O)N1n1c(Cc2ccc([N+](=O)[O-])cc2)n[nH]c1=O
TGI (PC-3 prostate): > 100 µM
TGI (SR leukemia): > 100 µM
TGI (T-47D breast): > 100 µM
TGI (SN12C renal): > 100 µM
TGI (NCI/ADR-RES ovarian): > 100 µM
TGI (SK-MEL-2 melanoma): > 100 µM
TGI (SK-MEL-5 melanoma): > 100 µM
TGI (BT-549 breast): > 100 µM

C=CCn1c(=O)c(C(=O)Nc2nc(C34CC5CC(CC(C5)C3)C4)cs2)c(O)c2ccccc21
TGI (PC-3 prostate): > 100 µM
TGI (SR leukemia): > 100 µM
TGI (COLO 205 colon): > 100 µM
TGI (SN12C renal): > 100 µM
TGI (NCI/ADR-RES ovarian): 76.6 µM
TGI (SK-MEL-5 melanoma): > 100 µM
TGI (BT-549 breast): > 100 µM

O=P(O)(O)C(N=C(Nc1ccccc1)Nc1ccccc1)P(=O)(O)O
TGI (PC-3 prostate): > 100 µM
TGI (COLO 205 colon): > 100 µM
TGI (NCI/ADR-RES ovarian): > 100 µM
TGI (SK-MEL-5 melanoma): > 100 µM
TGI (BT-549 breast): > 100 µM

CCOC(=O)c1c(-c2ccc(O)c(OC)c2)c(C#N)c(=S)n(C2OC(CO)C(O)C(O)C2O)c1-c1ccccc1 (stereo not drawn)
TGI (PC-3 prostate): > 100 µM
TGI (SR leukemia): > 100 µM
TGI (COLO 205 colon): > 100 µM
TGI (SN12C renal): > 100 µM
TGI (NCI/ADR-RES ovarian): > 100 µM
TGI (SK-MEL-5 melanoma): > 100 µM

Cc1ccc(S(=O)(=O)n2c3c(c4ccccc42)CCN2C[C@H]([C@H](C)Br)CC[C@@H]32)cc1
TGI (PC-3 prostate): > 100 µM
TGI (SR leukemia): > 100 µM
TGI (T-47D breast): > 100 µM
TGI (COLO 205 colon): > 100 µM
TGI (NCI/ADR-RES ovarian): > 100 µM
TGI (SK-MEL-2 melanoma): > 100 µM
TGI (SK-MEL-5 melanoma): > 100 µM

COc1ccc(C(=O)/C=C/c2ccc(OCCCOc3ccc(/C=C/C(=O)c4ccc(OC)cc4)cc3)cc2)cc1
TGI (PC-3 prostate): > 100 µM
TGI (SR leukemia): > 100 µM
TGI (T-47D breast): > 100 µM
TGI (COLO 205 colon): > 100 µM
TGI (SN12C renal): > 100 µM
TGI (NCI/ADR-RES ovarian): > 100 µM
TGI (SK-MEL-2 melanoma): > 100 µM
TGI (SK-MEL-5 melanoma): > 100 µM

S=C1NC2=C(CSC/C2=C\c2cccc(Br)c2)C(c2cccc(Br)c2)N1 (stereo not drawn)
TGI (PC-3 prostate): > 100 µM
TGI (T-47D breast): > 100 µM
TGI (COLO 205 colon): > 100 µM
TGI (SN12C renal): > 100 µM
TGI (NCI/ADR-RES ovarian): > 100 µM
TGI (SK-MEL-2 melanoma): > 100 µM
TGI (SK-MEL-5 melanoma): > 100 µM

Cc1nc(C)c(N2CCN([N+](=O)[O-])CC2)c(=O)[nH]1
TGI (PC-3 prostate): > 100 µM
TGI (SR leukemia): > 100 µM
TGI (T-47D breast): > 100 µM
TGI (COLO 205 colon): > 100 µM
TGI (SN12C renal): > 100 µM
TGI (NCI/ADR-RES ovarian): > 100 µM
TGI (SK-MEL-5 melanoma): > 100 µM
TGI (BT-549 breast): > 100 µM
